From article PMC6592621 (Experimental neurology, 2019)

Assays:
[1] = in mice; ref Parkinson Study Group, 2007; cited from earlier work
185 other kinases = conditions: at 1uM; ref Goodfellow et al., 2013; cited from earlier work
[2] = over 4 weeks in subjects with PD; ref Parkinson Study Group, 2007; cited from earlier work
striatal TH = experiment: Western blot of striatal TH in MPTP model; format: in vivo, C57BL/6J mice; conditions: 20 mg/kg MPTP for 5 days, vs neurotoxin vehicle or drug vehicle
striatal DA = experiment: HPLC of striatal neurochemistry in MPTP model; format: in vivo, C57BL/6J mice; conditions: MPTP 20 mg/kg s.c. 5 days, vs neurotoxin vehicle or drug vehicle
TH+ neurons in the SNpc = format: in vivo, C57BL/6J mice; conditions: MPTP-treated mice vs neurotoxin vehicle or drug vehicle controls
p38 = conditions: treatment in mice; ref Dong et al., 2016; cited from earlier work
p46-JNK = conditions: treatment in mice; ref Dong et al., 2016; cited from earlier work
p54-JNK = conditions: treatment in mice; ref Dong et al., 2016; cited from earlier work
CD68 expression = conditions: mouse EAE hippocampus; ref Bellizzi et al., 2018; cited from earlier work

SMILES: CCSCc1ccc2c(c1)c1c3c(c4c5cc(CSCC)ccc5n5c4c1n2[C@H]1C[C@](O)(C(=O)OC)[C@]5(C)O1)CNC3=O [CEP-1347]
- brain/plasma ratio [1]: < 0.2
- number of other kinases with 50% inhibition (185 other kinases): 185
- safety and tolerability [2]: safe and well tolerated

SMILES: CN1CC=C(c2ccccc2)CC1 [MPTP, 1-methyl-4-phenyl-1,2,3,6-tetrahydropyridine]
- reduction in striatal TH expression (striatal TH): approximately 50%
- reduction in striatal dopamine (striatal DA): approximately 50%
- reduction in the number of TH+ neurons in the SNpc (TH+ neurons in the SNpc): approximately 84%

SMILES: CN1CCN(Cc2ccc(-c3cnc4[nH]cc(-c5ccc6[nH]ccc6c5)c4c3)cc2)CC1 [URMC-099]
- decrease in phosphorylation of p38 (p38): 21.5%
- decrease in phosphorylation of p46-JNK (p46-JNK): 17.3%
- decrease in phosphorylation of p54-JNK (p54-JNK): 23.7%
- effect on CD68 expression (CD68 expression): prevented increased CD68 expression
